Measured values as given in patent publication US12319648B2, “Fluorinated phenylacetic acid derivatives in a weed control method” (SYNGENTA CROP PROTECTION AG, priority 2019, dated 2025).

Columns and labels:
Type in all cases: in vivo
[1] = system: Amaranthus retoflexus (AMARE); assay: Post-emergence herbicidal glasshouse test; conditions: post-emergence, 250 g/ha, 13 days after application
Protocol: (§1) Seeds of a variety of test species are shown in standard soil in pots Amaranthus retoflexus (AMARE), Ipomoea hederacea (IPOHE), Solanum nigrum (SOLNI), Lolium perenne (LOLPE). Echinochloa crus-galli (ECHCG), Setaria faberi (SETFA)). After cultivation for one day (pre-emergence) or after 8 days cultivation (post-emergence) under controlled conditions in a glasshouse (at 24/16° C., day/night; 14 hours light; 65% humidity), the plants are sprayed with an aqueous spray solution derived from the formulation of the technical active ingredient in acetone/water (50:50) solution containing 0.5% Tween 20 (polyoxyethylene sorbitan monolaurate, CAS RN 9005-64-5). Compounds are applied at 250 g/ha unless otherwise stated. The test plants are then grown in a glasshouse under controlled conditions in a glasshouse (at 24/16° C., day/night; 14 hours light; 65% humidity) and watered twice daily. After 13 days for pre and post-emergence, the test is evaluated for the percentage damage caused to the plant. The biological activities are shown in the following table on a five-point scale (5=81-100%; 4=61-80%; 3=41-60%; 2=21-40%; 1=0-20%).
(§2) Using the experimental conditions outlined above, a further test is conducted to compare the herbicidal properties of the difluro containing compound (1.014) with a representative compound (C1) referred to in GB901553. The compounds are applied at 1000 g/ha and 500 g/ha. The test is evaluated for the percentage damage caused to the plant (% phytotoxicity).

[2] = system: Echinochloa crus-galli (ECHCG); assay: Post-emergence herbicidal glasshouse test; conditions: post-emergence, 250 g/ha, 13 days after application
Protocol: as §1, §2

[3] = system: Ipomoea hederacea (IPOHE); assay: Post-emergence herbicidal glasshouse test; conditions: post-emergence, 250 g/ha, 13 days after application
Protocol: as §1, §2

Lolium perenne (LOLPE) [4] = assay: Post-emergence herbicidal glasshouse test; conditions: post-emergence, 250 g/ha, 13 days after application
Protocol: as §1, §2

Setaria faberi (SETFA) [5] = assay: Post-emergence herbicidal glasshouse test; conditions: post-emergence, 250 g/ha, 13 days after application
Protocol: as §1, §2

Solanum nigrum (SOLNI) = assay: Post-emergence herbicidal glasshouse test; conditions: post-emergence, 250 g/ha, 13 days after application
Protocol: as §1, §2

[6] = system: Echinochloa crus-galli (ECHCG); assay: Pre-emergence herbicidal glasshouse test; conditions: pre-emergence, 250 g/ha, 13 days after application
Protocol: as §1, §2

[7] = system: Ipomoea hederacea (IPOHE); assay: Pre-emergence herbicidal glasshouse test; conditions: pre-emergence, 250 g/ha, 13 days after application
Protocol: as §1, §2

Lolium perenne (LOLPE) [8] = assay: Pre-emergence herbicidal glasshouse test; conditions: pre-emergence, 250 g/ha, 13 days after application
Protocol: as §1, §2

Setaria faberi (SETFA) [9] = assay: Pre-emergence herbicidal glasshouse test; conditions: pre-emergence, 250 g/ha, 13 days after application
Protocol: as §1, §2

[10] = system: Amaranthus retoflexus (AMARE); assay: Pre-emergence herbicidal glasshouse test; conditions: pre-emergence, 250 g/ha, 13 days after application
Protocol: as §1, §2

Row | SMILES | percentage damage caused to the plant, five-point scale, AMARE [1] | percentage damage caused to the plant, five-point scale, ECHCG [2] | percentage damage caused to the plant, five-point scale, IPOHE [3] | percentage damage caused to the plant, five-point scale, LOLPE (Lolium perenne (LOLPE) [4]) | percentage damage caused to the plant, five-point scale, SETFA (Setaria faberi (SETFA) [5]) | percentage damage caused to the plant, five-point scale, SOLNI (Solanum nigrum (SOLNI)) | percentage damage caused to the plant, five-point scale, ECHCG [6] | percentage damage caused to the plant, five-point scale, IPOHE [7] | percentage damage caused to the plant, five-point scale, LOLPE (Lolium perenne (LOLPE) [8]) | percentage damage caused to the plant, five-point scale, SETFA (Setaria faberi (SETFA) [9]) | percentage damage caused to the plant, five-point scale, AMARE [10]
1 | O=C([O-])C(F)(F)c1cccc(Cl)c1Cl.[Na+] [Compound 1.038] | 5 (5=81-100%) | 2 (2=21-40%) | 4 (4=61-80%) | 1 (1=0-20%) | 4 (4=61-80%) | 4 (4=61-80%) | 1 (1=0-20%) | 5 (5=81-100%) | 2 (2=21-40%) | 3 (3=41-60%) | –
2 | O=C(O)C(F)(F)c1cccc(Cl)c1Cl [Compound 1.040] | 4 (4=61-80%) | 2 (2=21-40%) | 3 (3=41-60%) | 1 (1=0-20%) | 3 (3=41-60%) | 2 (2=21-40%) | 1 (1=0-20%) | 5 (5=81-100%) | 1 (1=0-20%) | 1 (1=0-20%) | –
3 | O=C(O)C(F)(F)c1cccc(Cl)c1Br [Compound 1.050] | 5 (5=81-100%) | 2 (2=21-40%) | 5 (5=81-100%) | – | – | – | 2 (2=21-40%) | 5 (5=81-100%) | – | – | 5 (5=81-100%)
4 | O=C(O)C(F)(F)c1cccc(Cl)c1Cl [Compound 1.039] | 5 (5=81-100%) | 2 (2=21-40%) | 4 (4=61-80%) | 1 (1=0-20%) | 3 (3=41-60%) | 3 (3=41-60%) | 1 (1=0-20%) | 5 (5=81-100%) | 3 (3=41-60%) | 2 (2=21-40%) | –
5 | Cc1ccc(Cl)c(Cl)c1C(F)(F)C(=O)O.N [Compound 1.063] | 4 (4=61-80%) | 1 (1=0-20%) | 3 (3=41-60%) | – | – | – | 1 (1=0-20%) | 1 (1=0-20%) | – | – | 1 (1=0-20%)
6 | O=C(O)C(F)(F)c1cccc(C(F)(F)F)c1Cl [Compound 1.059] | 5 (5=81-100%) | 3 (3=41-60%) | 5 (5=81-100%) | – | – | – | 1 (1=0-20%) | 5 (5=81-100%) | – | – | 1 (1=0-20%)
7 | O=C(O)C(F)(F)c1ccc(F)c(Cl)c1F [Compound 1.051] | 5 (5=81-100%) | 1 (1=0-20%) | 4 (4=61-80%) | – | – | – | 1 (1=0-20%) | 5 (5=81-100%) | – | – | 3 (3=41-60%)
8 | O=C(O)C(F)(F)c1cccc(Cl)c1C(F)(F)F [Compound 1.060] | 5 (5=81-100%) | 1 (1=0-20%) | 5 (5=81-100%) | – | – | – | 1 (1=0-20%) | 3 (3=41-60%) | – | – | 5 (5=81-100%)
9 | O=C(O)C(F)(F)c1c(Cl)cccc1Cl [Compound 1.044] | 3 (3=41-60%) | 1 (1=0-20%) | 4 (4=61-80%) | – | – | – | 1 (1=0-20%) | 3 (3=41-60%) | – | – | 2 (2=21-40%)
